According to patent US8530504B2, “Pyrazolothiazole compound” (Eisai R&D Management Co., Ltd., priority 2009, dated 2013):

target: human CRFR1 (Homo sapiens (Human), UniProt P34998); assay: CRFR1 Binding Test; conditions: competition with 100 pM 125I-CRF, SPA method, membrane fraction of human CRFR1-expressing HEK293 cells; read-out: CRF1 receptor binding capacity IC50;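 also: nonspecific binding was determined with a 4,000-fold excess of unlabelled sauvagine and subtracted from every reading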
Sequence (P34998 24-415): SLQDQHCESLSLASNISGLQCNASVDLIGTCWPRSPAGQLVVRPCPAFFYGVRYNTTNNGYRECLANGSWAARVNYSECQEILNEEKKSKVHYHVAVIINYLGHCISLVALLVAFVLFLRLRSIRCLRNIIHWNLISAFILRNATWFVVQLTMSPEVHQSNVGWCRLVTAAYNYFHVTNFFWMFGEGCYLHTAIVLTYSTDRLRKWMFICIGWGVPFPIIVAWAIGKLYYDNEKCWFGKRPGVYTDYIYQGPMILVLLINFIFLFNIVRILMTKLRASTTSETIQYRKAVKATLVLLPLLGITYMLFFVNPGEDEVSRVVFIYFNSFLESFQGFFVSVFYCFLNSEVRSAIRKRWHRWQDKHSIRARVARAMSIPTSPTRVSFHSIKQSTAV

**Q.** For `CCCN(c1ccccn1)c1c(OC)nn2c(-c3c(OC)cc(COC)cc3OC)csc12` [Example 86, 3-[2,6-Dimethoxy-4-(methoxymethyl)phenyl]-6-methoxy-N-propyl-N-pyridin-2-ylpyrazolo[5,1-b][1,3]thiazole-7-amine], which IC50 is on record?
**A.** 33 nM

**Q.** With `COc1cc(C)cc(OC)c1-c1csc2c(N(CC3CC3)CC3CCOC3)c(OC)nn12` (stereo not shown) [Example 26, N-(Cyclopropylmethyl)-3-(2,6-dimethoxy-4-methylphenyl)-6-methoxy-N-(tetrahydrofuran-3-ylmethyl)pyrazolo[5,1-b][1,3]thiazole-7-amine] as the compound, how does the IC50 read?
**A.** 33 nM

**Q.** With `COc1cc(C2CC2)cc(OC)c1-c1csc2c(N(CC3CC3)CC3CCOC3)c(OC)nn12` (stereo not shown) [Example 60, 3-(4-Cyclopropyl-2,6-dimethoxyphenyl)-N-(cyclopropylmethyl)-6-methoxy-N-(tetrahydrofuran-3-ylmethyl)pyrazolo[5,1-b][1,3]thiazole-7-amine] as the compound, how does the IC50 read?
**A.** 33 nM

**Q.** `CCN(c1c(OC)nn2c(-c3c(OC)cc(C4CC4)cc3OC)csc12)C1CCOCC1` [Example 64, 3-(4-Cyclopropyl-2,6-dimethoxyphenyl)-N-ethyl-6-methoxy-N-(tetrahydro-2H-pyran-4-yl)pyrazolo[5,1-b][1,3]thiazole-7-amine] was tested. Which IC50 did it give?
**A.** 61 nM

**Q.** For `COCc1cc(OC)c(-c2c(SC)sc3c(N(CC4CCOCC4)CC4CC4)c(C)nn23)c(OC)c1` [Example 1, N-(Cyclopropylmethyl)-3-[2,6-dimethoxy-4-(methoxymethyl)phenyl]-6-methyl-2-(methylthio)-N-(tetrahydro-2H-pyran-4-ylmethyl)pyrazolo[5,1-b][1,3]thiazole-7-amine], which IC50 is on record?
**A.** 93 nM

**Q.** `CCCCN(c1c(SC)nn2c(-c3c(OC)cc(COC)cc3OC)csc12)C1CCOCC1` [Example 106, N-Butyl-3-[2,6-dimethoxy-4-(methoxymethyl)phenyl]-6-(methylthio)-N-(tetrahydro-2H-pyran-4-yl)pyrazolo[5,1-b][1,3]thiazole-7-amine] was tested. Which IC50 did it give?
**A.** 83 nM

**Q.** For `CCc1cc(OC)c(-c2csc3c(N(CC4CC4)CC4CCOC4)c(OC)nn23)c(OC)c1` (stereo not shown) [Example 23, Cyclopropylmethyl-[3-(4-ethyl-2,6-dimethoxy-phenyl)-6-methoxy-pyrazolo[5,1-b][1,3]thiazol-7-yl]-(tetrahydro-furan-3-ylmethyl)amine], which IC50 is on record?
**A.** 44 nM

**Q.** Which IC50 does the source give for `COCCN(c1c(OC)nn2c(-c3c(OC)cc(COC)cc3OC)csc12)C1CCCC1` [Example 53, N-Cyclopentyl-3-[2,6-dimethoxy-4-(methoxymethyl)phenyl]-6-methoxy-N-(2-methoxyethyl)pyrazolo[5,1-b][1,3]thiazole-7-amine] here?
**A.** 18 nM

**Q.** With `CCCN(Cc1ccncc1)c1c(OC)nn2c(-c3c(OC)cc(COC)cc3OC)csc12` [Example 44, 3-[2,6-Dimethoxy-4-(methoxymethyl)phenyl]-6-methoxy-N-propyl-N-(pyridin-4-ylmethyl)pyrazolo[5,1-b][1,3]thiazole-7-amine] as the compound, how does the IC50 read?
**A.** 53 nM

**Q.** With `COCCN(c1c(OC)nn2c(-c3c(OC)cc(COC)cc3OC)csc12)C1CCC1` [Example 56, N-Cyclobutyl-3-[2,6-dimethoxy-4-(methoxymethyl)phenyl]-6-methoxy-N-(2-methoxyethyl)pyrazolo[5,1-b][1,3]thiazole-7-amine] as the compound, how does the IC50 read?
**A.** 31 nM

**Q.** `COCc1cc(OC)c(-c2csc3c(N(CCOC(C)C)CC4CC4)c(OC)nn23)c(OC)c1` [Example 49, N-(Cyclopropylmethyl)-3-[2,6-dimethoxy-4-(methoxymethyl)phenyl]-N-(2-isopropoxyethyl)-6-methoxypyrazolo[5,1-b][1,3]thiazole-7-amine] was tested. Which IC50 did it give?
**A.** 59 nM

**Q.** For `COCc1cc(OC)c(-c2csc3c(N(CC4CCC4)CC4C5COCC54)c(OC)nn23)c(OC)c1` (single isomer, unassigned; diastereomer 1) [Example 98, N-(Cyclobutylmethyl)-3-[2,6-dimethoxy-4-(methoxymethyl)phenyl]-6-methoxy-N-[3-oxabicyclo[3.1.0]hex-6-ylmethyl]-pyrazolo[5,1-b][1,3]thiazole-7-amine (diastereomer 1)], which IC50 is on record?
**A.** 88 nM

**Q.** How did the IC50 turn out when `CCOCc1cc(OC)c(-c2csc3c(N(CCOC)CC4CC4)c(OC)nn23)c(OC)c1` [Example 40, N-(Cyclopropylmethyl)-3-[4-(ethoxymethyl)-2,6-dimethoxyphenyl]-6-methoxy-N-(2-methoxyethyl)pyrazolo[5,1-b][1,3]thiazole-7-amine] was run?
**A.** 32 nM

**Q.** With `COCc1cc(OC)c(-c2csc3c(N(CC(C)C)CC4(OC)CC4)c(OC)nn23)c(OC)c1` [Example 76, 3-[2,6-Dimethoxy-4-(methoxymethyl)phenyl]-N-isobutyl-6-methoxy-N-[(1-methoxycyclopropyl)methyl]pyrazolo[5,1-b][1,3]thiazole-7-amine] as the compound, how does the IC50 read?
**A.** 37 nM

**Q.** With `CCOCCN(CC1CC1)c1c(OC)nn2c(-c3c(OC)cc(COC)cc3OC)csc12` [Example 45, N-(Cyclopropylmethyl)-3-[2,6-dimethoxy-4-(methoxymethyl)phenyl]-N-(2-ethoxyethyl)-6-methoxypyrazolo[5,1-b][1,3]thiazole-7-amine] as the compound, how does the IC50 read?
**A.** 48 nM

**Q.** Which IC50 does the source give for `COCc1cc(OC)c(-c2csc3c(N(CCCF)c4cccnc4)c(OC)nn23)c(OC)c1` [Example 88, 3-[2,6-Dimethoxy-4-(methoxymethyl)phenyl]-N-(3-fluoropropyl)-6-methoxy-N-pyridin-3-ylpyrazolo[5,1-b][1,3]thiazole-7-amine] here?
**A.** 53 nM

**Q.** With `CCCN(c1c(OC)nn2c(-c3c(OC)cc(COC)cc3OC)csc12)C1CCCOCC1` (stereo not shown) [Example 34, 3-[2,6-Dimethoxy-4-(methoxymethyl)phenyl]-6-methoxy-N-oxepan-4-yl-N-propylpyrazolo[5,1-b][1,3]thiazole-7-amine] as the compound, how does the IC50 read?
**A.** 130 nM

**Q.** With `CCOCc1cc(OC)c(-c2csc3c(N(CC4CCC4)C4CCOC4)c(OC)nn23)c(OC)c1` (stereo not shown) [Example 47, N-(Cyclobutylmethyl)-3-[4-(ethoxymethyl)-2,6-dimethoxyphenyl]-6-methoxy-N-(tetrahydrofuran-3-yl)pyrazolo[5,1-b][1,3]thiazole-7-amine] as the compound, how does the IC50 read?
**A.** 32 nM

**Q.** `CCCCN(c1c(OC)nn2c(-c3c(OC)cc(COC(C)C)cc3OC)csc12)C1CCOCC1` [Example 75, Butyl-[3-(4-isopropoxymethyl-2,6-dimethoxy-phenyl)-6-methoxy-pyrazolo[5,1-b][1,3]thiazol-7-yl]-(tetrahydro-pyran-4-yl)amine] was tested. Which IC50 did it give?
**A.** 74 nM

**Q.** `CCCN(CC1CCOC1)c1c(OC)nn2c(-c3cnc(N(C)C)cc3OC)csc12` (stereo not shown) [Example 16, [3-(6-Dimethylamino-4-methoxy-pyridin-3-yl)-6-methoxy-pyrazolo[5,1-b][1,3]thiazol-7-yl]-propyl-(tetrahydro-furan-3-ylmethyl)-amine] was tested. Which IC50 did it give?
**A.** 132 nM

**Q.** Which IC50 does the source give for `COCCN(CC(C)C)c1c(OC)nn2c(-c3c(OC)cc(COC)cc3OC)csc12` [Example 55, 3-[2,6-Dimethoxy-4-(methoxymethyl)phenyl]-N-isobutyl-6-methoxy-N-(2-methoxyethyl)pyrazolo[5,1-b][1,3]thiazole-7-amine] here?
**A.** 19 nM

**Q.** `CCCN(CCCOC)c1c(OC)nn2c(-c3c(OC)cc(COC)cc3OC)csc12` [Example 39, 3-[2,6-Dimethoxy-4-(methoxymethyl)phenyl]-6-methoxy-N-(3-methoxypropyl)-N-propylpyrazolo[5,1-b][1,3]thiazole-7-amine] was tested. Which IC50 did it give?
**A.** 57 nM

**Q.** How did the IC50 turn out when `CCCCN(CCOC)c1c(OC)nn2c(-c3c(OC)cc(COC)cc3OC)csc12` [Example 28, N-Butyl-3-[2,6-dimethoxy-4-(methoxymethyl)phenyl]-6-methoxy-N-(2-methoxyethyl)pyrazolo[5,1-b][1,3]thiazole-7-amine] was run?
**A.** 40 nM

**Q.** `COc1cc(Cl)cc(OC)c1-c1csc2c(N(CC3CC3)CC3CCOC3)c(OC)nn12` (stereo not shown) [Example 30, 3-(4-Chloro-2,6-dimethoxyphenyl)-N-(cyclopropylmethyl)-6-methoxy-N-(tetrahydrofuran-3-ylmethyl)pyrazolo[5,1-b][1,3]thiazole-7-amine] was tested. Which IC50 did it give?
**A.** 49 nM

**Q.** `COCc1cc(OC)c(-c2csc3c(N(CC4CC4)c4cccnc4)c(OC)nn23)c(OC)c1` [Example 89, N-(Cyclopropylmethyl)-3-[2,6-dimethoxy-4-(methoxymethyl)phenyl]-6-methoxy-N-pyridin-3-ylpyrazolo[5,1-b][1,3]thiazole-7-amine] was tested. Which IC50 did it give?
**A.** 52 nM

**Q.** `CCCN(c1c(OC)nn2c(-c3c(OC)cc(C)cc3OC)csc12)C1CCOCC1` [Example 17, 3-(2,6-Dimethoxy-4-methylphenyl)-6-methoxy-N-propyl-N-(tetrahydro-2H-pyran-4-yl)pyrazolo[5,1-b][1,3]thiazole-7-amine] was tested. Which IC50 did it give?
**A.** 56 nM

**Q.** For `COCc1cc(OC)c(-c2csc3c(N(C4CCC4)C4CCOC4)c(OC)nn23)c(OC)c1` (stereo not shown) [Example 67, N-Cyclobutyl-3-[2,6-dimethoxy-4-(methoxymethyl)phenyl]-6-methoxy-N-(tetrahydrofuran-3-yl)pyrazolo[5,1-b][1,3]thiazole-7-amine], which IC50 is on record?
**A.** 52 nM

**Q.** With `COCCCN(c1c(OC)nn2c(-c3c(OC)cc(COC)cc3OC)csc12)C1CCCC1` [Example 63, N-Cyclopentyl-3-[2,6-dimethoxy-4-(methoxymethyl)phenyl]-6-methoxy-N-(3-methoxypropyl)pyrazolo[5,1-b][1,3]thiazole-7-amine] as the compound, how does the IC50 read?
**A.** 61 nM

**Q.** Which IC50 does the source give for `COCCN(c1c(OC)nn2c(-c3c(OC)cc(COC)cc3OC)csc12)C1CCCCC1` [Example 54, N-Cyclohexyl-3-[2,6-dimethoxy-4-(methoxymethyl)phenyl]-6-methoxy-N-(2-methoxyethyl)pyrazolo[5,1-b][1,3]thiazole-7-amine] here?
**A.** 20 nM

**Q.** `CCCN(c1cccnc1)c1c(OC)nn2c(-c3c(OC)cc(COC)cc3OC)csc12` [Example 87, 3-[2,6-Dimethoxy-4-(methoxymethyl)phenyl]-6-methoxy-N-propyl-N-pyridin-3-ylpyrazolo[5,1-b][1,3]thiazole-7-amine] was tested. Which IC50 did it give?
**A.** 36 nM

**Q.** How did the IC50 turn out when `COCCN(CC1CCC1)c1c(OC)nn2c(-c3c(OC)cc(COC)cc3OC)csc12` [Example 48, N-(Cyclobutylmethyl)-3-[2,6-dimethoxy-4-(methoxymethyl)phenyl]-6-methoxy-N-(2-methoxyethyl)pyrazolo[5,1-b][1,3]thiazole-7-amine] was run?
**A.** 25 nM
